# Source: PMC6411751, “Use of machine learning to identify novel, behaviorally active antagonists of the insect odorant receptor co-receptor (Orco) subunit” (Scientific Reports, 2019)
# Read-outs that look alike come from different tables or passages of the source.
# Key:
# Agam\Orco = target: T1, Agam\Orco (Anopheles gambiae, UniProt Q7QCC7); test: cell-based; format: cell-based; conditions: for inhibition at 3000 µM: read-out: inhibition of Agam\Orco (OLC12 response) at 3 mM
# T1 construct: expressed in transfected cells; host or cells: Xenopus laevis oocytes injected with capped cRNA (plasmid pT7TS, gift of L. Zwiebel)
# T1 sequence (Q7QCC7 1-478): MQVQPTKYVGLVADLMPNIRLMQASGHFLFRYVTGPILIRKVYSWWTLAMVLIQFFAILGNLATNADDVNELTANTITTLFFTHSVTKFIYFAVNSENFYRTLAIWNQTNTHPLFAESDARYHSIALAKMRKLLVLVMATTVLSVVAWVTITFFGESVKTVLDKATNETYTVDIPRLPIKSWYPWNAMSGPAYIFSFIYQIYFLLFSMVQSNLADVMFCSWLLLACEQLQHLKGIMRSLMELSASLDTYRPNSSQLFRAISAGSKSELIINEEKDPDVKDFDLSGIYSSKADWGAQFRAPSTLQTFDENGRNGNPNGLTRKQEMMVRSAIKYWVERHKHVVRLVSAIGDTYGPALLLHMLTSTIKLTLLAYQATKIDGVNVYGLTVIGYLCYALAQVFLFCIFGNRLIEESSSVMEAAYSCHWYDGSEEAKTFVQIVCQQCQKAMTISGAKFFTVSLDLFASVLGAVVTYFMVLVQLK
# Description: A 2 hr incubation with collagenase B (Roche) was used to remove follicle cells from oocytes. Capped cRNA for Agam\Orco was synthesized using mMessage mMachine kits (Thermo Fisher Scientific). 25 ng of cRNA was injected into stage V–VI oocytes, followed by a 2–5 day incubation at 18 °C in Barth’s saline (in mM: 88 NaCl, 1 KCl, 2.4 NaHCO3, 0.3 CaNO3, 0.41 CaCl2, 0.82 MgSO4, 15 HEPES, pH 7.4, and 0.05 g/L tetracycline, 0.05 g/L ciprofloxacin, 0.1 g/L amikacin) prior to electrophysiological recordings.
# (§1) An automated parallel electrophysiology system (OpusExpress 6000 A, Molecular Devices) was used to record Orco agonist (OLC12) or odorant induced currents under two-electrode voltage clamp. Oocytes were perfused with ND96 (in mM: 96 NaCl, 2 KCl, 1 CaCl2, 1 MgCl2, 5 HEPES, pH 7.4). DMSO was used to prepare 1 M or 100 mM stock solutions of test compounds, which were then diluted in ND96 on the day of the experiment. Compounds were applied at a flow rate of 1.0 mL/min, with extensive washing in ND96 at 4.6 mL/min between applications. Micropipettes with resistances of 0.2–2.0 MΩ were filled with 3 M KCl. The holding potential was −70 mV. Current responses were filtered (4-pole, Bessel, low pass) at 20 Hz (−3 db) and sampled at 100 Hz. OpusXpress 1.1 software (Molecular Devices) was used to capture and store current responses.
# To measure antagonist activity at Orco, Agam\Orco was activated by the Orco agonist OLC12[34]. […] The current response to OLC12 in the presence of antagonist candidate was compared to the mean of the preceding two responses to OLC12 alone and presented as a percentage[34],[35]. This value was then normalized to the value obtained when the assay was run in the absence of antagonist candidate (sham).
# During development of the training panel (Fig. 2, Tables S1 and S2), all compounds not previously known to be Orco antagonists were tested at a concentration of 3 mM. […] Concentration-inhibition curves were constructed for all compounds eliciting >20 percent inhibition at 3 mM. The same concentration and criteria were used during screening of predicted actives (Fig. 4D) and predicted inactives (Fig. 5C).
# Clampfit 9.1 software (Molecular Devices) was used to perform initial analysis of electrophysiological data. Prism 7 (Graphpad) was used for curve fitting. Concentration-inhibition data were fit to the equation: I = Imax/(1 + (X/IC50)^n) where I represents the current response at a given concentration of inhibitor, X; Imax is the maximal response in the absence of inhibitor; IC50 is the concentration of inhibitor present that allows a half maximal response from OLC12; n is the apparent Hill coefficient.
# Agam\ORs = system: Agam\ORs; set-up: method as in ref 2-5 (a number printed in a supplementary file, which may have a reference list of its own: not looked up in the article's list); conditions: Or2, Or9, Or10, Or11, Or14, Or18, Or20, Or38, Or41, Or50, Or57; cited from earlier work
# Dmel\Or69a = system: Dmel\Or69a; set-up: method as in ref 1 Münch, D., Galizia, C.G. DoOR 2.0 (2016); conditions: ref 1 Münch, D., Galizia, C.G. DoOR 2.0 (2016); cited from earlier work
# Dmel\Or71a = system: Dmel\Or71a; set-up: method as in ref 1 Münch, D., Galizia, C.G. DoOR 2.0 (2016); conditions: ref 1 Münch, D., Galizia, C.G. DoOR 2.0 (2016); cited from earlier work
# D. melanogaster larvae = test: Larval chemotaxis assay (attraction to ethyl acetate); format: in vivo, Drosophila melanogaster; conditions: 10 µL of EA diluted 1:10^−6 in mineral oil vs mineral oil alone; mean ± SEM
# Description: We have previously provided a detailed description of these methods. Briefly, Canton-S (CS) flies were used as wild type (wt). The experimental chamber was a 100 × 15 mm polystyrene Petri dish (VWR) with 20 mL of 1.1% agarose coating the bottom. In this assay, 50 third-instar larvae were placed inside a “starting circle” at the center of the plate (the circle was drawn on the outside bottom of the plate). A line was also drawn that divided the plate in half. Small filter paper discs (d = 6 mm, Whatman Cellulose Filter Paper, # 1030 023) were placed on opposite sides of the plate (see Fig. 8A). Onto each filter paper disc was placed 10 μL of solution, containing either vehicle of dilution (mineral oil), odorant attractant (EA, diluted in mineral oil) or an Orco antagonist compound (diluted in mineral oil). The sides of the plate on which the compounds or vehicle were placed were alternated from experiment to experiment.
# In order to test Orco antagonists for the ability to affect the chemotaxis assay, a large (d = 9 cm) filter paper (Whatman Filter Paper # D00161-S) was adhered with double-sided tape to the inside of the Petri dish lid. This allowed the larvae to be exposed to Orco antagonists in an airborne context. For light repulsion experiments, we used a Zeiss CL6000 LED light source at 76% intensity. Following the 5 min migratory period, plates were photographed, coded and then blind counted. Any larvae still within the starting circle or touching the center line were excluded from the analysis. A Response Index (RI) was calculated as RI = (S − C)/(S + C), where S is the number of larvae on the stimulus (EA) side and C is the number of larvae on the control (mineral oil) side. RI = 1 would indicate complete attraction, RI = −1 would indicate complete repulsion, and RI = 0 would indicate no preference. Statistical significance was assessed using a one-way analysis of the variance followed by Dunnett’s’s post-test.
# Dmel\Or19a = system: Dmel\Or19a; set-up: method as in ref 1 Münch, D., Galizia, C.G. DoOR 2.0 (2016); conditions: ref 1 Münch, D., Galizia, C.G. DoOR 2.0 (2016); cited from earlier work
# Cqui\Or21 + Cqui\Orco = test: Inhibition of heteromeric OR in oocytes (3-methylindole or OLC12 activation); format: cell-based, Culex quinquefasciatus; conditions: Orco agonist activation of Cqui\Or21 + Cqui\Orco
# Description: as §1
# (§2) To measure the ability of Orco antagonists to inhibit odorant activation, oocytes expressing heteromeric ORs (Orco + ORX) were exposed to a 30 sec application of odorant followed by a 20 min wash. Oocytes were then exposed to a 90 sec application of Orco antagonist, immediately followed by a 30 sec co-application of Orco antagonist and odorant. The current response to odorant in the presence of Orco antagonist was compared to the preceding response to odorant alone and represented as a percentage. This value was then normalized to the value obtained when the assay was run in the absence of antagonist (sham).
# (§3) Figure S3. Effects of Orco antagonists on heteromeric ORs. […]
# (§4) heteromeric complexes of odorant specificity subunits and Orco. The Orco antagonists tested were 3-isopropyl-6-methyl-catechol (3 I6 MC), a potent compound from the input training set, and two compounds id e ntified in Fig u re 4 an d Ta b le 1 : 2-tert-butyl-6-methylphenol (B MP ) and linalyl formate (LF) . These compounds were tested for antagonist activity against odorant activation of three ORs from Anopheles gambiae (Agam\Or28 + Agam\Orco, Agam\Or39 + A ga m\Orco, Agam\Or65 + A ga m\Orco), o ne O R fro m Culex quinquefasciatus, the southern house mosquito (Cq u i\Or21 + Cqui\Orco) an d on e O R f ro m Drosophila melanogaster (Dme l\Or35a + Dmel\Orco). Each OR was activated by its cognate odorant agonist applied at an approximate EC50 concentration. […]
# (§5) SEM (n = 4). […] Statistical significance of the data in each panel was assessed by one-way analysis of variance followed by Dunnett’s multiple comparison test using the pre-normalized values for each antagonist compared to the values obtained in the sham recordings (*, p < 0 .0 5; **, p < 0. 01; ***, p < 0 . 00 1 ).
# Dmel\Or35a + Dmel\Orco = target: T2, Dmel\Or35a + Dmel\Orco (Drosophila melanogaster, UniProt Q9VNB5); test: Inhibition of heteromeric OR in oocytes (hexanol or OLC12 activation); format: cell-based; conditions: Orco agonist activation of Dmel\Or35a + Dmel\Orco
# T2 construct: expressed in transfected cells; host or cells: Xenopus laevis oocytes
# T2 sequence (Q9VNB5 1-486): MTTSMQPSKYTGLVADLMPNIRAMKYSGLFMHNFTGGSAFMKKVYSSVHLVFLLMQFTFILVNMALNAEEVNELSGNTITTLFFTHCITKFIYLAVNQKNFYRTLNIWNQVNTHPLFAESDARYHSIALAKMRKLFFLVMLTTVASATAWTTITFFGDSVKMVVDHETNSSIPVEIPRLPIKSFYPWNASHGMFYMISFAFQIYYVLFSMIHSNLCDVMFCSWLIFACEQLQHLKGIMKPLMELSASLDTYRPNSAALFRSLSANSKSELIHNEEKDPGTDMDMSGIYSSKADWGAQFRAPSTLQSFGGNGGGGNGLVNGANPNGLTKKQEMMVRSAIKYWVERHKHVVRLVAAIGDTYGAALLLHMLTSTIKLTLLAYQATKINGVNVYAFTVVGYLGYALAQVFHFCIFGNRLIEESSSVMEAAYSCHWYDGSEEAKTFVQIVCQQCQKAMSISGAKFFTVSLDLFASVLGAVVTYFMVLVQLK
# T2 sequence (Q9V3Q2 1-409 partner): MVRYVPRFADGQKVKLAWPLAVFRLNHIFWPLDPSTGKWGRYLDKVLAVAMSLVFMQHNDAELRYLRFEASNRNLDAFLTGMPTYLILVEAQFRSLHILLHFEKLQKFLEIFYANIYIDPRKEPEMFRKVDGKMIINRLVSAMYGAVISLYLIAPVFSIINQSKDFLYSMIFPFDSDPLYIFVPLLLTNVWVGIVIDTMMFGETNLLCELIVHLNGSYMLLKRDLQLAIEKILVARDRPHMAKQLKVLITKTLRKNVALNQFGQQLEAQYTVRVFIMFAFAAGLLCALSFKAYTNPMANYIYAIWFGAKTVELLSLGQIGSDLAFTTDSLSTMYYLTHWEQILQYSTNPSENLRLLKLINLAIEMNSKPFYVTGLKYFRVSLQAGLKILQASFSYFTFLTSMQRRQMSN
# Description: as §1, §2, §3, §4, §5
# [1] = Table S1, training actives, Agam\Orco activated by 30 µM OLC12, mean ± SEM (n = 3-8), read-out: IC50
compound,measurement,setting,value
CCc1ccccc1O [2-ethylphenol],IC50,Agam\Orco,261 ± 14 µM
same,loss of potency relative to BMP,Agam\Orco; Agam\Orco IC50 compared with BMP,5.5 fold
same,activity at Agam\ORs,Agam\ORs,activation
same,scaled response from DoOR (max = 1.0),Dmel\Or69a,0.356
C=Cc1ccc(O)cc1 [4-hydroxystyrene],scaled response from DoOR (max = 1.0),Dmel\Or71a,0.131
"CCOC(C)=O [ethyl acetate, reference compound]",inhibition at 3000 µM,"Agam\Orco; 3 mM compound, 30 µM OLC12",≤ 20%
same,response index (RI),D. melanogaster larvae,0.76 ± 0.08
O=C/C=C/c1ccccc1 [trans-cinnamaldehyde],IC50,Agam\Orco,1870 ± 94 µM
same,scaled response from DoOR (max = 1.0),Dmel\Or19a,0.112
Cc1ccnc2ccccc12 [4-methylquinoline],inhibition at 3000 µM,"Agam\Orco; 3 mM compound, 30 µM OLC12",≤ 20%
CC(O)CCc1ccccc1 (stereo not drawn) [4-phenyl-2-butanol],scaled response from DoOR (max = 1.0),Dmel\Or71a,0.063
OC[C@H]1OC(O)[C@H](O)[C@@H](O)[C@@H]1O (stereo partly drawn) [glucose],inhibition at 3000 µM,"Agam\Orco; 3 mM compound, 30 µM OLC12",≤ 20%
c1cscn1 [thiazole],inhibition of Agam\Orco (OLC12 response) at 3 mM,"Agam\Orco; 3 mM compound, 30 µM OLC12",≤ 20%
COC(C)=O [methyl acetate],IC50,Agam\Orco; [1],1640 ± 179 µM
"CCn1c(SCC(=O)Nc2ccc(C(C)C)cc2)nnc1-c1ccncc1 [OLC12, 2-((4-Ethyl-5-(4-pyridinyl)-4H-1,2,4-triazole-3-yl)sulfanyl)-N-(4-isopropylphenyl)acetamide, reference compound]",approximate EC25,Cqui\Or21 + Cqui\Orco,~3 µM
same,approximate EC25,Dmel\Or35a + Dmel\Orco,~10 µM
(+)-isopulegol,IC50,Agam\Orco; [1],1370 ± 285 µM
"CC1CC[C@H](C(C)C)[C@@H](O)C1 (single isomer, unassigned; (+)) [(+)menthol]",IC50,Agam\Orco; [1],443 ± 72 µM
CCCCC/C=C\C/C=C\CCCCCCCC(=O)O [linoleic acid],inhibition at 3000 µM,"Agam\Orco; 3 mM compound, 30 µM OLC12",≤ 20%
"C=C(C)C1CC=C(C)[C@@H](O)C1 (single isomer, unassigned; (-)) [(-)-carveol]",IC50,Agam\Orco; [1],1030 ± 117 µM
N[C@@H](Cc1ccccc1)C(=O)O [phenylalanine],inhibition at 3000 µM,"Agam\Orco; 3 mM compound, 30 µM OLC12",≤ 20%
CC(C=O)=Cc1ccccc1 [α-methyl cinnamaldehyde],IC50,Agam\Orco; [1],187 ± 40 µM
Cc1ccc(C(C)C)cc1 [p-cymene],scaled response from DoOR (max = 1.0),Dmel\Or71a,0.063
CCOC(=O)CC [ethyl propionate],inhibition at 3000 µM,"Agam\Orco; 3 mM compound, 30 µM OLC12",≤ 20%
